≈ marks a conversion by molar mass, not a printed value. Entries after “also recorded” stand apart in the source; their conditions may differ. Like-named read-outs stand apart in the source and are kept apart here.
Tests used:
[1] = test system: PDE type 4 purified from U937 cells; test: Phosphodiesterase (PDE) type 4 assay; format: biochemical; conditions: PDE type 4 from U937 cells; three independent experiments; read-out: PDE4 activity IC50
Description: PDE type 4 purification from U937 cells was carried out using the method of [Hill and Mitchell (1994)]. PDE activity was assayed, using a method described by [di Santo and Heaslip (1993)], in the presence of varying concentrations of thalidomide analogues. Each data point was carried out in duplicate with activity expressed as percentage of control. IC50 was determined from dose response curves derived from three independent experiments.

TNF-α = TNF-α inhibitory activity; format: cell-based
HUVEC = HUVEC proliferation (bFGF- and VEGF-induced, 3H-thymidine); format: cell-based, human; conditions: for bFGF and VEGF-induced proliferation of HUVECs: 5-50 μg ml^-1, 96 h; for IC50: Homo sapiens, HUVEC; for IC50 / HUVEC inhibition ~IC50 VEGF / HUVEC inhibition ~IC50 bFGF: 96 h, approximate figures
Description: (§1) Human umbilical vein endothelial cells (HUVEC) were purchased from TCS Cellworks Ltd. (Park Leys, Botolph Claydon, Bucks, UK) and cultured in large vessel EC basal medium and cell growth supplement (TCS Cellworks Ltd.). The cells were passaged between 3–5 times prior to use. The human endothelial-like EA.hy926 cell line, derived from the fusion of HUVEC with the A549 carcinoma cell line ([Edgell et al, 1983]), was kindly provided by Cora-Jean Edgell (NC, USA). The cells were cultured in DMEM with high glucose, 10% FCS and HAT. Both cell lines were harvested from subconfluent cultures and diluted to 4×10^4 cells ml^−1. Cells were seeded in 60 wells of a 96-well plate in a volume of 100 μl^−1. One plate was used per test article. Plates were incubated for 1 h at 37°C and 5% CO2. Growth factors were added at a volume of 50 μl^−1 with final concentrations of 10 ng ml^−1. Thalidomide and its analogues were added at a volume of 50 μl^−1 in final concentrations of 5, 10, 25, 50 μg ml^−1. DMSO as used as a vehicle at a final concentration of 0.05%. Plates were incubated at 37°C with 5% CO2 for 96 h. During the last 18 h of culture 1 μCi^−1 of ^3H-thymidine was added per well. Plates were then stored at −20°C until analysis using a Microbeta counter (Wallac, UK).

rat aortic explants = test: Rat aorta assay (microvessel outgrowths); format: cell-based; parameters: key to Anti-angiogenesis Rat aorta: 0=no effect; 1=non significant inhibition; 2=significant inhibition at 10 μg ml^-1; 3=significant inhibition at 1 μg ml^-1; conditions: for Anti-angiogenesis Rat aorta: ranked 0-3
Description: For the human angiogenesis assay thalidomide and various analogues were dissolved in DMSO (Sigma, Kent, UK) to obtain a stock solution of 1 mg ml^−1. Further dilutions were made in warm culture medium immediately before use and 1 and 10 μg ml^−1 of thalidomide or analogues were administered every 48 h. Final DMSO concentration was 0.05%. For the rat aorta assay, thalidomide analogues (Celgene, Warren, NJ, USA) were prepared in Tween 80 (Sigma, Kent, UK). […] The final Tween 80 concentration was 0.025%. For in vivo treatment experiments, mice were treated daily with 10 or 50 mg kg^−1 IMiD-1 with 0.5% DMSO as vehicle (see Tumour challenge model).
Preparation of agarose culture wells and aortic explants were prepared as described originally [Nicosia and Ottinetti, 1990], and subsequently modified by [Stevenson et al, 1998]. In brief, aortic explants were stored in DMEM/HAM F12. Agarose rings were obtained by punching two concentric circles in the sterile agarose gel (1.5%, w v^−1) with specifically designed aluminium punches. Collagen type I from rat tail (Sigma) was dissolved overnight in glacial acetic acid and diluted to 4.3 mg ml^−1 with 10% (v v^−1) DMEM/HAM F12. The final collagen solution was obtained by mixing seven volumes of 4.3 mg ml^−1 collagen with two volumes NaHCO3 (11.7 mg ml^−1 in DMEM/HAM F12) and one volume of 10×MEM. Finally, the pH was adjusted to 7.4 with 0.1 M NaOH using phenol red as a visual indicator. Prior to embedding of explants in collagen gel, the bottom of each agarose well was coated with 200 μl collagen solution and allowed to set at 37°C. The wells were then filled (further addition of 400 μl) and explants were promptly orientated into the centre of the collagen gel. The plates were incubated overnight with serum-free medium before group allocation and drug treatment commenced. Drugs were prepared as described and diluted in DMEM/HAM F12 medium to be administered at each media change (48 h). Microvessel outgrowths in all cultures were quantified at each media change.

[2] = test system: HUVECs (tubule formation); test: Human angiogenesis kit (tubule development); format: cell-based; parameters: key to Anti-angiogenesis Human model: 0=no effect; 1=non significant inhibition; 2=significant inhibition at 10 μg ml^-1; 3=significant inhibition at 1 μg ml^-1; conditions: for inhibition of tubule development: 11 days; for Anti-angiogenesis Human model: ranked 0-3
Description: (§2) For the human angiogenesis assay thalidomide and various analogues were dissolved in DMSO (Sigma, Kent, UK) to obtain a stock solution of 1 mg ml^−1. Further dilutions were made in warm culture medium immediately before use and 1 and 10 μg ml^−1 of thalidomide or analogues were administered every 48 h. Final DMSO concentration was 0.05%. For the rat aorta assay, thalidomide analogues (Celgene, Warren, NJ, USA) were prepared in Tween 80 (Sigma, Kent, UK). Dilutions were made in culture medium immediately before use and 1 or 10 μg ml^−1 of the analogues were administered every 48 h. The final Tween 80 concentration was 0.025%. For in vivo treatment experiments, mice were treated daily with 10 or 50 mg kg^−1 IMiD-1 with 0.5% DMSO as vehicle (see Tumour challenge model).
A commercially available human angiogenesis kit, used for the assessment of angiogenesis in vitro ([Bishop et al, 2000]; [Donovan et al, 2001]; [Terai et al, 2001]; [Drinkwater et al, 2002]; [Osugi et al, 2002]) was provided by TCS Cellworks. The assay is supplied as growing cultures of HUVECs at the earliest stages of tubule formation in a 24 well plate format. The assay was carried out according to manufactures instructions with minor modifications. In brief, 0.5 ml^−1 of fresh medium or medium plus drug preparations were added to the appropriate wells. A known angiogenic stimulator (VEGF at 5 ng ml^−1) and inhibitor (suramin at 10 μg ml^−1) were included as positive and negative controls respectively in addition to medium and DMSO controls and plates were incubated at 37°C. Drug administration was carried out every 48 h. On day 11, wells were fixed using ice cold 70% EtOH prior to incubation (RT) for 30 min. Blocking buffer was then added for 10 min. Endothelial cells were visualised by first staining with a primary sheep anti-human for von Willebrand factor antibody followed by a secondary donkey anti-sheep IgG horseradish peroxidase conjugate prior to colour development using a DAB metal substrate. The plate was washed with ddH2O (×3) and allowed to air dry overnight. Cultures were scored manually using a 25-point Chalkley eyepiece graticule (Graticules Ltd., Tonbridge, Kent, UK), previously described as a satisfactory method of assessing tumour vascularity ([Fox et al, 1995]). The extent of angiogenesis was assessed by counting the number of points on the chalkley graticule that landed on a tubule. The count was repeated 12 times for each well. The term ‘graticule unit’ was assigned to this measurement of tubule density.

EA.hy926 cell line = test: EA.hy926 proliferation (bFGF- and VEGF-induced, 3H-thymidine); format: cell-based, human; conditions: 5-50 μg ml^-1, 96 h; data not shown
Description: as §1

EA.hy926 cells = test: Wound assay for EA.hy926 cell migration; format: cell-based, human; conditions: 16 h
Description: We tested IMiD-1 in the wound healing assay as described by [Igura et al, 2001]. Briefly, confluent monolayers of EA.hy.926 cells in 35-mm dishes were wounded with a rubber policeman and washed with PBS. Then the dishes were incubated in complete DMEM containing IMiD-1 or suramin for 16 h at 37°C in a 5% CO2 incubator. DMSO (0.05%) was used as control. The cell monolayers were fixed with absolute methanol and stained with Giemsa. The number of cells that had migrated from the edge of the wound in each 125×500 μm area of eight randomly chosen fields was counted. The results are presented as the average number of cells per field.

CMT93 colorectal tumour = format: in vivo, MF1 nude mice
Description: as §2
MF1 nude mice (nu nu^−1) were purchased from Harlan UK. Mice were age and sex-matched for individual experiments. All animal experiments have been carried out with ethical committee approval. The ethical guidelines that were followed meet the standards set by the UKCCCR guidelines ([Workman et al, 1998]). CMT93 is an epithelial-like murine rectum polypoid carcinoma cell line with sarcomatous features derived from a C57/BL mouse ([Franks and Hemmings, 1978]). Mice were challenged subcutaneously with 200 μl of the murine colorectal cell line CMT93 (2×10^6 per mouse). Once the tumours reached a size of 20 mm^3, the potent anti-angiogenic analogue IMiD-1 was administered intraperitoneally daily at a concentration of 10 or 50 mg kg^−1. Tumours were measured every 3–4 days, and volumes (in mm^3) were calculated by the use of the formula (width [mm^2]×length [mm]×0.52). The animals were observed daily, and those bearing large tumours were monitored carefully for any signs of discomfort. […] Histological samples were obtained using formalin-fixed, paraffin-embedded sections stained for haematoxylin and eosin and viewed under a microscope at a magnification of ×400.

CMT93 cells = CMT93 cells in vitro (direct effect, VEGF secretion); format: cell-based, murine; conditions: data not shown
EC = test system: EC; parameters: method as in Takano et al, 1994; conditions: ref Takano et al, 1994; cited from earlier work
human EC = test system: human EC; parameters: method as in Moreira et al, 1999; conditions: compared with thalidomide; ref Moreira et al, 1999; cited from earlier work

## O=C1CCC(N2C(=O)c3ccccc3C2=O)C(=O)N1 (centres unmarked) [Thalidomide]
[1]
  IC50: > 100 µM
TNF-α
  IC50: 190 µM
HUVEC
  bFGF and VEGF-induced proliferation of HUVECs: did not significantly inhibit
HUVEC; VEGF-induced proliferation, read-out: HUVEC inhibition ~IC50 VEGF
  IC50: > 50 µg/mL
HUVEC; bFGF-induced proliferation, read-out: HUVEC inhibition ~IC50 bFGF
  IC50: > 50 µg/mL
Rat aortic explants; at up to 50 μg ml^-1, data not shown
  inhibition of microvessel development: did not significantly inhibit
Rat aortic explants
  Anti-angiogenesis Rat aorta: 0
[2]; 10 μg ml^-1 every 48 h
  inhibition of tubule development: non-significant inhibition
[2]
  Anti-angiogenesis Human model: 1

## Nc1cccc2c1CN(C1CCC(=O)NC1=O)C2=O (centres unmarked) [IMiD-1]
[1]
  IC50: > 100 µM
TNF-α
  IC50: 0.1 µM
HUVEC
  bFGF and VEGF-induced proliferation of HUVECs: did not significantly inhibit; also recorded: did not affect
HUVEC; VEGF-induced proliferation
  HUVEC inhibition ~IC50 VEGF: >50 µg/mL
HUVEC; bFGF-induced proliferation
  HUVEC inhibition ~IC50 bFGF: >50 µg/mL
EA.hy926 cell line
  bFGF and VEGF-induced proliferation of EA.hy926: did not affect
Rat aortic explants; 1 μg ml^-1 every 48 h
  inhibition of microvessel outgrowths: significantly inhibited
Rat aortic explants; 10 μg ml^-1 every 48 h, up to day 10
  inhibition of microvessel outgrowths: 100%
Rat aortic explants
  Anti-angiogenesis Rat aorta: 3
[2]; 1 μg ml^-1 every 48 h
  inhibition of tubule development: significant reduction; also recorded: significantly inhibit
[2]; 10 μg ml^-1 every 48 h
  inhibition of tubule development: more potent than suramin
[2]
  Anti-angiogenesis Human model: 3
EA.hy926 cells
  migration of EC in the wound healing assay: significantly inhibit
CMT93 colorectal tumour; 10 or 50 mg kg^-1 i.p. daily
  histological examination of tumours: vast regions of necrotic tissue
CMT93 colorectal tumour; 10 or 50 mg kg^-1 i.p. daily, nude mice, CMT93
  tumour growth rates: significantly reduce
CMT93 colorectal tumour; mouse, in vivo, ip
  health and weight of mice: healthy and maintained weight as normal
CMT93 cells
  direct drug effect on CMT93 cells in vitro: no direct drug effect
  secretion of VEGF by CMT93 cells in vitro: inhibit

## VEGF
[2]; VEGF at 5 ng ml^-1, positive control
  effect on angiogenesis (tubule development): significantly increased

## Cc1ccc(C(=O)Nc2ccc(S(=O)(=O)O)c3cc(S(=O)(=O)O)cc(S(=O)(=O)O)c23)cc1NC(=O)c1cccc(NC(=O)Nc2cccc(C(=O)Nc3cc(C(=O)Nc4ccc(S(=O)(=O)O)c5cc(S(=O)(=O)O)cc(S(=O)(=O)O)c45)ccc3C)c2)c1 [suramin, reference compound]
HUVEC
  bFGF and VEGF-induced proliferation of HUVECs: did not inhibit
Rat aortic explants; 10 μg ml^-1 every 48 h
  inhibition of microvessel outgrowths: significantly inhibit
Rat aortic explants; Rattus norvegicus, previously determined, data not shown
  IC50: 10 µg/mL (≈ 7.71 µM)
[2]; Homo sapiens, HUVEC, suramin at 10 μg ml^-1
  inhibition at 10 µg/mL: ~50%
EA.hy926 cells
  migration of EC in the wound healing assay: significantly inhibit
EC
  concentration required to inhibit EC proliferation: 250 µg/mL

## COc1ccc(C(CC(N)=O)N2C(=O)c3ccccc3C2=O)cc1OC (centres unmarked) [SelCID-3]
[1]
  IC50: 9.42 µM
TNF-α
  IC50: 12.6 µM
HUVEC
  bFGF and VEGF-induced proliferation of HUVECs: inhibited
HUVEC; VEGF-induced proliferation
  HUVEC inhibition ~IC50 VEGF: ~45 µg/mL
HUVEC; bFGF-induced proliferation
  HUVEC inhibition ~IC50 bFGF: ~25 µg/mL
EA.hy926 cell line
  bFGF and VEGF-induced proliferation of EA.hy926: inhibited
Rat aortic explants; 1 μg ml^-1 every 48 h
  inhibition of microvessel outgrowths: potent inhibition
Rat aortic explants; 10 μg ml^-1 every 48 h
  inhibition of microvessel outgrowths: potent inhibition
Rat aortic explants
  Anti-angiogenesis Rat aorta: 3
Human EC
  inhibition of human EC proliferation in vitro: greater extent than thalidomide
